According to ChEMBL document CHEMBL4340557, “Fasudil dichloroacetate (FDCA), an orally available agent with potent therapeutic efficiency on monocrotaline-induced pulmonary arterial hypertension rats” (Bioorg Med Chem Lett, 2019):

Legend:
Rattus norvegicus [1] = assay: Hemodynamic activity in Sprague-Dawley rat assessed as effect on right ventricular systolic pressure at 43.3 mg/kg, po administered daily for 2 weeks by pressure transducer-coupled polygraphy; type: ADME, organism-based; details: in vivo, 336 h
Rattus norvegicus [2] = assay: Hemodynamic activity in Sprague-Dawley rat assessed as effect on mean pulmonary artery pressure at 43.3 mg/kg, po administered daily for 2 weeks by pressure transducer-coupled polygraphy; type: ADME, organism-based; details: in vivo, 336 h
[3] = AUC (0 to t) in Sprague-Dawley rat at 14.4 mg/kg, po by LC-MS/MS analysis; type: ADME, organism-based; details: in vivo
[4] = Plasma concentration in Sprague-Dawley rat assessed as fasudil level at 14.4 mg/kg, po measured at 0.5 hrs by LC-MS/MS analysis; type: ADME, organism-based; details: in vivo
[5] = Plasma concentration in Sprague-Dawley rat assessed as fasudil level at 14.4 mg/kg, po measured at 1 hr by LC-MS/MS analysis; type: ADME, organism-based; details: in vivo
Rattus norvegicus [6] = assay: Anti-hypersensitive activity in MCT-induced pulmonary arterial hypertension Sprague-Dawley rat model assessed as mean pulmonary artery pressure at 43.3 mg/kg, po administered daily for 14 days starting from 14 days post-MCT challenge and measured post-last dose by pressure transducer-coupled polygraphy (reference value: 36 +/- 2.83 mmHg); type: functional
Rattus norvegicus [7] = assay: Anti-hypersensitive activity in MCT-induced pulmonary arterial hypertension Sprague-Dawley rat model assessed as reduction in cardiomyocyte hypertrophy by measuring cross-sectional area of cardiomyocyte at 43.3 mg/kg, po administered daily for 14 days starting from 14 days post-MCT challenge and measured post-last dose by hematoxylin and eosin staining-based microscopic analysis (reference value: 418 +/- 50.88 micrometer2); type: functional
[8] = Tmax in Sprague-Dawley rat at 14.4 mg/kg, po by LC-MS/MS analysis; type: ADME, organism-based; details: in vivo
Rattus norvegicus [9] = assay: Anti-hypersensitive activity in MCT-induced pulmonary arterial hypertension Sprague-Dawley rat model assessed as lung fibrosis at 43.3 mg/kg, po administered daily for 14 days starting from 14 days post-MCT challenge and measured post-last dose by Masson's trichrome staining-based microscopic analysis (reference value: 6.12 +/- 1.66%); type: functional
Rattus norvegicus [10] = assay: Anti-hypersensitive activity in MCT-induced pulmonary arterial hypertension Sprague-Dawley rat model assessed as reduction in cardiomyocyte hypertrophy by measuring cardiac fibrosis at 43.3 mg/kg, po administered daily for 14 days starting from 14 days post-MCT challenge and measured post-last dose by Masson's trichrome staining-based microscopic analysis (reference value: 11.74 +/- 3.24 %); type: functional; parameters: scale not given: the % may be the effect or the level left
[11] = AUC (0 to infinity) in Sprague-Dawley rat at 14.4 mg/kg, po by LC-MS/MS analysis; type: ADME, organism-based; parameters: dose 14.4 mg/kg, time infinity, route oral; details: in vivo
[12] = Elimination rate constant in Sprague-Dawley rat at 14.4 mg/kg, po by LC-MS/MS analysis; type: ADME, organism-based; details: in vivo
[13] = AUMC (0 to infinity) in Sprague-Dawley rat at 14.4 mg/kg, po by LC-MS/MS analysis; type: ADME, organism-based; details: in vivo
Rattus norvegicus [14] = assay: Hemodynamic activity in Sprague-Dawley rat assessed as effect on mean systemic arterial pressure at 43.3 mg/kg, po administered daily for 2 weeks by pressure transducer-coupled polygraphy; type: ADME, organism-based; details: in vivo, 336 h
Rattus norvegicus [15] = assay: Anti-hypersensitive activity in MCT-induced pulmonary arterial hypertension Sprague-Dawley rat model assessed as pulmonary artery medial thickness at 43.3 mg/kg, po administered daily for 14 days starting from 14 days post-MCT challenge and measured post-last dose by hematoxylin and eosin staining-based microscopic analysis (reference value: […] +/- […]); type: functional
[16] = Cmax in Sprague-Dawley rat at 14.4 mg/kg, po by LC-MS/MS analysis; type: ADME, organism-based; parameters: dose 14.4 mg/kg, route oral; details: in vivo
Rattus norvegicus [17] = assay: Hemodynamic activity in Sprague-Dawley rat assessed as effect on right ventricular hypertrophy index at 43.3 mg/kg, po administered daily for 2 weeks by pressure transducer-coupled polygraphy; type: ADME, organism-based; details: in vivo, 336 h
[18] = Plasma concentration in Sprague-Dawley rat assessed as fasudil level at 14.4 mg/kg, po measured at 0.25 hrs by LC-MS/MS analysis; type: ADME, organism-based; details: in vivo
[19] = Plasma concentration in Sprague-Dawley rat assessed as fasudil level at 14.4 mg/kg, po measured at 4 hrs by LC-MS/MS analysis; type: ADME, organism-based; details: in vivo
[20] = AUMC (0 to t) in Sprague-Dawley rat at 14.4 mg/kg, po by LC-MS/MS analysis; type: ADME, organism-based; details: in vivo
[21] = MRT in Sprague-Dawley rat at 14.4 mg/kg, po by LC-MS/MS analysis; type: ADME, organism-based; details: in vivo
[22] = Cardiotoxicity in Sprague-Dawley rat assessed as effect on cross-sectional area of cardiomyocyte at 43.3 mg/kg, po administered daily for 2 weeks by hematoxylin and eosin staining-based microscopic analysis (reference value: 209.53 +/- 26.44 micrometer2); type: toxicity, organism-based; details: in vivo, 336 h
[23] = Plasma concentration in Sprague-Dawley rat assessed as fasudil level at 14.4 mg/kg, po measured at 2 hrs by LC-MS/MS analysis; type: ADME, organism-based; details: in vivo
[24] = Cardiotoxicity in Sprague-Dawley rat assessed as cardiac fibrosis at 43.3 mg/kg, po administered daily for 2 weeks by hematoxylin and eosin staining-based microscopic analysis (reference value: 2.99 +/- 1.34 %); type: toxicity, organism-based; details: in vivo, 336 h
Rattus norvegicus [25] = assay: Anti-hypersensitive activity in MCT-induced pulmonary arterial hypertension Sprague-Dawley rat model assessed as right ventricular systolic pressure at 43.3 mg/kg, po administered daily for 14 days starting from 14 days post-MCT challenge and measured post-last dose by pressure transducer-coupled polygraphy (reference value: 59.06 +/- 3.26 mmHg); type: functional

## O=C(O)C(Cl)Cl.O=S(=O)(c1cccc2cnccc12)N1CCCNCC1
Rattus norvegicus [1]
  Activity: Non-Toxic
Rattus norvegicus [2]
  Activity: Non-Toxic
[3]
  AUC(0-t): 109 ng·h/mL
[4]
  Cp: 55.5 ng/mL
[5]
  Cp: 38 ng/mL
Rattus norvegicus [6]
  Activity: 25.67 mmHg
Rattus norvegicus [7]
  Activity: 282.4 um2
[8]
  Tmax: 15 min
Rattus norvegicus [9]
  Activity: 6.12%
Rattus norvegicus [10]
  Activity: 3.69%
[11]
  AUC(0-inf): 117 ng·h/mL
[12]
  k el: 0.000219 s⁻¹
[13]
  AUMC: 160 hr.hr.ng/ml
Rattus norvegicus [14]
  Activity: Non-Toxic
Rattus norvegicus [15]
  Activity: 0.2
[16]
  Cmax: 113 ng/mL
Rattus norvegicus [17]
  Activity: Non-Toxic
[18]
  Cp: 113 ng/mL
[19]
  Cp: 4.46 ng/mL
[20]
  AUMCt: 119 hr.hr.ng/ml
[21]
  MRT: 77.4 min
[22]
  Activity: 190.6 um2
[23]
  Cp: 18.4 ng/mL
[24]
  Activity: 2.25%
Rattus norvegicus [25]
  Activity: 49.54 mmHg
